# Results as given in the METLIN SMRT retention time set (Domingo-Almenara et al. 2019).
# Experiment: gradient 5% acetonitrile 3 min, to 50% in 2 min, to 85% in 15 min, held 3 min, 100 µL/min
# Settings: column: Zorbax Extend-C18 2.1 x 50 mm; eluents: water / acetonitrile, 0.1% formic acid
# Procedure, shortened: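 Mixtures of ~100 pure standards were chromatographed on a Zorbax Extend-C18 column (2.1 × 50 mm, 1.8 μm) at 100 μL/min using water and acetonitrile, each with 0.1% formic acid. Detection used a quadrupole time-of-flight mass spectrometer in positive and negative ionization mode, and data collection spanned 3 months. Retention time was obtained from adduct peaks picked computationally and each checked manually.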
row,SMILES,RP-LC retention time
1,Cc1ccc(F)c(NC(=O)C(C)C2CCN(C(=O)Nc3ccc(Cl)cc3)CC2)c1 (stereo not given),968 s
2,O=C(NCc1ccccc1F)C1CCCN(c2nnc3ccc(C(F)(F)F)cn23)C1 (stereo not given),781 s
3,CC(C)(C)NC(=O)N1CCC(OC2CCN(Cc3ccccc3)CC2)CC1,625 s
4,CC(C)NC(=O)c1ccc(OCC2CCCN2C(=O)c2ccc(C(F)(F)F)cc2)cc1 (stereo not given),914 s
5,CN(C)[C@@H]1CN(C(=O)COc2ccccc2)C[C@H]1CO,546 s
6,CCC(C)NC(=O)C1CCN(S(=O)(=O)c2cn(CC)cn2)CC1 (stereo not given),639 s
7,COC(=O)c1sccc1NC(=O)Nc1cccn2c(C3CCC3)nnc12,884 s
8,Cc1nnc(C2CCCCCN2C(=O)c2cnco2)o1 (stereo not given),618 s
9,CC1CCC2(CC1)NC(=O)N(CC(=O)NCc1ccccc1Cl)C2=O (stereo not given),790 s
10,N#Cc1c(N)nc(SCc2csc(-c3ccc(Cl)cc3)n2)c(C#N)c1-c1ccc(OCCO)cc1,1130 s
11,CC(=O)N1CCc2cc(C)c(S(=O)(=O)NC3CC3)cc21,709 s
12,O=S(=O)(Cc1ccccc1)N1CCCCC1c1nc(-c2ccccc2)n[nH]1 (stereo not given),943 s
13,Oc1c(C(Nc2cccc(Cl)c2)c2cccnc2)ccc2cccnc12 (stereo not given),692 s
14,CCN1CCN(CC2=C(C(=O)OC)C(c3ccccc3C)NC(=O)N2)CC1 (stereo not given),615 s
15,Cc1c(C(=O)O)nnn1-c1ccc2c(c1)OCCO2,638 s
16,N#Cc1cccc(C(=O)N2CCCn3nc(-c4cccs4)cc3C2)c1,720 s
17,CCCn1cc(S(=O)(=O)N2CCN(c3cccc(Cl)c3)CC2)c2cccnc21,761 s
18,Cn1cc(C2=CCN(CC(=O)N3CCN(c4ccc(F)cc4)CC3)CC2)cn1,612 s
19,O=C1c2ccccc2C(=O)N1c1nc(-c2ccccc2)cs1,864 s
20,CN1CCN(S(=O)(=O)c2ccc(F)c(Cl)c2)CC1,530 s
21,CCCn1cc(C2=CCN(C(=O)Nc3cccc(Cl)c3F)CC2)c2cccnc21,773 s
22,Cc1nnsc1C(=O)Nc1onc2c1CSC2,666 s

row,SMILES,RP-LC retention time
1,CC(C)N1CCn2cc(S(=O)(=O)Nc3cccc(Cl)c3)cc2C1=O,805 s
2,CCOC(=O)Cc1csc(NC(=O)CSc2nnc3ccccn23)n1,617 s
3,CC(=O)c1sc(NC(=O)c2cc(Cl)sc2Cl)nc1-c1ccccc1,1080 s
4,CC1CN(C(=O)Cn2cc(SCC(=O)N3CCCCCC3)c3ccccc32)CC(C)O1 (stereo not given),889 s
5,Cc1nc2ccn(Cc3cccs3)c(=O)c2cc1C(=O)N1CCOCC1,648 s
6,COCc1cn(C2CN(C(=O)c3ccc(OC)c(F)c3)C2)nn1,649 s
7,O=C(NC1CCCC1)N1CC(Oc2ccccc2-c2nc(-c3ccccc3)no2)C1,1010 s
8,O=C(NCCc1cccs1)C1CCCN(C(=O)c2cc(-c3ccccn3)n[nH]2)C1 (stereo not given),645 s
9,CC(C)CC(=O)N1c2nc(-c3ccccc3)nn2C2(CCCCC2)[C@@H]2CCCC[C@@H]21,674 s
10,CC(C(=O)N1CCN(c2cc(-c3ccc(Cl)cc3)[nH]n2)CC1)c1ccccc1 (stereo not given),921 s
11,CCn1c(=O)c(N2CCCC(C(=O)N3CCN(c4ccc(OC)cc4)CC3)C2)nc2ccccc21 (stereo not given),987 s
12,CCOC(=O)C1CCN(C(=O)COc2ccc(NC(=O)C3CC3)cn2)CC1,682 s
13,Cc1csc(-c2cc(S(=O)(=O)N3CCN(c4ncccn4)CC3)c(C)n2C)n1,958 s
14,CCc1nnc(NC(=O)CSc2nc3ccccc3[nH]2)s1,656 s
15,CCn1cc(C(=O)NCc2ccc(F)cc2)c2cccnc21,771 s
16,COCc1nc(CCNC(=O)NCC(C)C)no1,626 s
17,CCn1c(=O)cc(SCC(=O)N2CCN(c3ccccn3)CC2)c2ccccc21,607 s
18,CC(C)Cn1nc2n(c1=O)CCN(S(=O)(=O)Cc1ccccc1)CC2,777 s
19,COc1ccc(-c2ccnc3nc(C4CCC4)nn23)c(F)c1,869 s
20,O=C(NCC(c1ccccc1)c1c[nH]c2ccccc12)NC1CCCCC1 (stereo not given),976 s
21,O=C(c1ccc(-c2csc(C3CC3)n2)cc1)N1CCCCCC1,1070 s

# Now from value to compound:
row,RP-LC retention time,SMILES
1,777 s,COc1cc2c(cc1OC)CN(CCc1ccc(NC(=O)c3cc(OC)c(OC)cc3NC(=O)c3cnc4ccccc4c3)cc1)CC2
2,1040 s,CC(C)c1csc(-c2csc(S(=O)(=O)NCc3ccccc3)c2)n1
3,700 s,COc1cc(C2OC(c3cccnc3)=NN2C(C)=O)cc(OC)c1OC (stereo not given)
4,714 s,CCOC(=O)c1c(C)[nH]c(CCC(=O)NCc2ccc(SC)cc2)c1C
5,578 s,CCn1c(C)cc(=O)c2cc(C(=O)Nc3nc(C)c(C)s3)ccc21
6,687 s,COc1cc(-c2oc3cc(O)ccc3c(=O)c2O)ccc1O
7,743 s,COc1cccc(-c2nc3sc(C(N)=O)c(C)n3c2NC(C)(C)C)c1
8,840 s,O=C(Cn1c(=O)c(S(=O)(=O)c2ccccc2)cc2ccccc21)NC1CCCC1
9,803 s,Cc1nc(NC(=O)CN(C)c2nc3c(C)ccc(C)c3s2)sc1C(=O)N(C)C
10,812 s,CCc1nc(-c2c(C)cc(C)nc2NC(=O)c2ccc(F)cc2)no1
11,906 s,CC1(C(=O)NCc2ccc(Cl)cc2)CN(S(C)(=O)=O)CC(=O)N1CCc1ccccc1 (stereo not given)
12,1030 s,O=C(Nc1nc2c(s1)COc1ccccc1-2)c1cc(Cl)ccc1Cl
13,941 s,Cc1cc(-c2nnc(C3CCC3)o2)c(C)n1CC(=O)NCc1ccc(C(F)(F)F)cc1
14,947 s,Cc1ccc(CNC(=O)c2nnc(-c3ccc(S(=O)(=O)N(C)C)cc3)o2)cc1C
15,1310 s,CCOc1nc2ccccc2nc1N1CCCC(C(=O)Nc2cc(Cl)ccc2C)C1 (stereo not given)
16,909 s,CCn1ncn2cc(S(=O)(=O)Nc3ccc(C)c(F)c3)cc2c1=O
17,587 s,Cc1cc(C(=O)N2CCCn3ccnc3C2c2cnn(C)c2)c(C)o1 (stereo not given)
18,613 s,NS(=O)(=O)c1ccc2nc(NC(=O)C3=COCCO3)sc2c1
19,1130 s,COc1ccccc1COC(=O)C1=CN(Cc2ccccc2)S(=O)(=O)N=C1C
20,803 s,Cc1cc([N+](=O)[O-])ccc1NC(=O)c1ccc(-n2cnnn2)cc1
21,699 s,Cn1c(=O)c2ccn(CC(=O)NCCCc3ccccc3)c2n(C)c1=O
22,1020 s,CCc1ccc(OCc2nc(CCN(C)C(=O)C3CCCC3)no2)cc1
23,659 s,CN(C)CCNC(=O)COc1ccccc1-c1nnc(-c2ccccc2)o1
24,620 s,CCN1CCN(C(=O)CN2C(=O)C3CCCCN3c3ccc(S(=O)(=O)N(C)C)cc32)CC1 (stereo not given)

row,RP-LC retention time,SMILES
1,1220 s,Cc1ccc(NS(=O)(=O)c2cc(-c3nc(C(C)C)cs3)cs2)c(Br)c1
2,716 s,CCN1CCCn2cc(S(=O)(=O)Nc3cccc(F)c3)cc2C1=O
3,875 s,COc1ccc(NC(=O)N2CCCC2c2nc(-c3cccc(OC)c3)no2)cc1 (stereo not given)
4,735 s,CCC(C(=O)NCCOc1ccc2nnc(-c3ccc(OC)cc3)n2n1)c1ccccc1 (stereo not given)
5,1070 s,Cc1cccc(-c2noc(Cn3c(=O)n(-c4ccccc4C)c(=O)c4sccc43)n2)c1
6,651 s,O=C(Nc1ccc2c(c1)OCO2)Nc1ccc2nc3n(c(=O)c2c1)CCCC3
7,787 s,CN(C)c1ccc(Nc2nc(-c3ccc(Br)cc3)cs2)cc1
8,730 s,COc1cc(-c2nc3ccc(Cl)cn3c2Nc2ccc(C)cc2)ccc1O
9,772 s,Cc1coc2cc3oc(=O)c(CC(=O)N[C@H](Cc4c[nH]c5ccccc45)C(=O)O)c(C)c3cc12
10,644 s,COCc1nc(NCc2ccc(OC)c(OC)c2)ncc1C(=O)O
11,1200 s,CCN(CC)S(=O)(=O)c1cc(-c2nnc(-c3cccc(C)c3)o2)ccc1Cl
12,661 s,CCn1c(CCNC(=O)c2ccc(C)c(C)c2)nc2cccnc21
13,733 s,CCOc1ccc(NC(=O)c2cccn2-c2cccnc2)cc1
14,1040 s,Cc1ccc(-c2noc(Cc3nc(-c4ccc(Cl)cc4)cs3)n2)cc1
15,929 s,Cc1ccc(Cn2c(=O)c(N3CCC(NC(=O)NCC4CCCO4)CC3)nc3cccnc32)cc1 (stereo not given)
16,619 s,CC(C)n1cnc2cc(CNC(=O)c3ccc(C#N)cc3)ccc21
17,694 s,COc1ccc(CCNC(=O)C2CCN(C(=O)C3Sc4ccccc4NC3=O)CC2)cc1OC (stereo not given)
18,822 s,CCCCN(C)C(=O)C1CCN(S(=O)(=O)c2ccc3c(c2)sc(=O)n3C)CC1
19,809 s,CCC1Oc2ccc(S(=O)(=O)N3CCC(C(=O)Nc4ccc5c(c4)OCO5)CC3)cc2NC1=O (stereo not given)
20,627 s,Cc1nn(CC(=O)NCCCN2CCCCC2)c(=O)c2nc(-c3ccccc3)sc12
21,670 s,Cc1ccc(NC(=O)C2CCN(c3cncnc3N3CCOCC3)CC2)cc1C
22,784 s,CC(=O)Nc1ccc2nc(NC(=O)c3cccc(C(F)(F)F)c3)sc2c1
23,654 s,CCOC(=O)CNC(=O)N1CCN(Cc2nc3cccnc3n2-c2ccc(CC)cc2)CC1
